Reference: patent US5102786A, “Biological diagnostic assay system” (PB Diagnostic Systems, Inc., priority 1987, dated 1992)

What was measured:
[1] = Displacement of phenobarbital from plasma protein (filtration through Centricon PM 10, scintillation counting); conditions: human, plasma
plasma proteins [2] = molecular target: T1, plasma proteins (Homo sapiens, UniProt P02768); test: in vitro; assay type: binding; conditions: plasma
T1 construct: Experiments were conducted with a set of plasma solutions in HEPES buffer; from tissue; host or cells: plasma
Protocol: Experiments were conducted with a set of plasma solutions in HEPES buffer containing ^14 C-labeled phenytoin (9.3×10^-5 M) and varying amounts of PNS.

[3] = molecular target: Human Serum Albumin (HSA) (Homo sapiens, UniProt P02768); test: Displacement of sulforhodamine 101 from human serum albumin (Centricon 30 filtration, absorbance 586 nm); assay type: binding; conditions: CONTROL (no PNS), 10.5 µM
Protocol: Two sets of aqueous solutions, 1.05×10^-5 M in sulforhodamine 101, were prepared in HEPES buffer with varying amounts of HSA.

plasma proteins [4] = test: Displacement of a theophylline-rhodamine conjugate from plasma proteins (Centricon 30 filtration, 500-600 nm); assay type: binding, human; conditions: CONTROL (no PNS), 10 µM
Excerpt: The solutions were centrifuged through a Centricon 30 filter at 5000 g and the filtrates were scanned on a Perkin Elmer λ9 Spectrophotometer at 500-600 nm.

Sequence of Human Serum Albumin (HSA) (P02768 25-609): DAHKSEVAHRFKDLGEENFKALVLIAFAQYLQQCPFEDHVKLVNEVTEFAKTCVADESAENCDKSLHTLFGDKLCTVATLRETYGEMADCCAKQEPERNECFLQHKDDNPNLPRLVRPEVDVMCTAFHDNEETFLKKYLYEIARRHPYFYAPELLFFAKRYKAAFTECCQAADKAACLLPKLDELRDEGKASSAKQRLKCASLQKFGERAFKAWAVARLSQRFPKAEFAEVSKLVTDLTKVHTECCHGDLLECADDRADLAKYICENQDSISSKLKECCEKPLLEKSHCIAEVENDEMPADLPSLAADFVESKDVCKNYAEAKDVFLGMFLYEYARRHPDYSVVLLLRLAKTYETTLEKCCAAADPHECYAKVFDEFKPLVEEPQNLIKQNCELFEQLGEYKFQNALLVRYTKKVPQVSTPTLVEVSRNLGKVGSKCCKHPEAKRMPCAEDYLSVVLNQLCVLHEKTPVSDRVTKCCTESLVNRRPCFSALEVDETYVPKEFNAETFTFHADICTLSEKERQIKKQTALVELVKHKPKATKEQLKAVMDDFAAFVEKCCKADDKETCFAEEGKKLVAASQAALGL
T1 sequence (P02768 25-609): as above

## CCC1(c2ccccc2)C(=O)NC(=O)NC1=O [phenobarbital, reference compound]
[1]
  fraction unbound: ~0.55
  fraction unbound at 1 h: 0.555

## O=C1NC(=O)C(c2ccccc2)(c2ccccc2)N1 [phenytoin, reference compound]
Plasma proteins [2]
  fraction unbound at 93 µM: 0.119

## O=S(=O)([O-])c1cc(S(=O)(=O)O)ccc1C1=c2cc3c4c(c2Oc2c1cc1c5c2CCCN5CCC1)CCC[N+]=4CCC3 [sulforhodamine 101, reference compound]
[3]; 0% HSA, HEPES buffer
  % SULFORHODAMINE 101 (PASSED THROUGH FILTER): 100%
[3]; 0.032% HSA
  % SULFORHODAMINE 101 (PASSED THROUGH FILTER): 83%
[3]; 0.064% HSA
  % SULFORHODAMINE 101 (PASSED THROUGH FILTER): 50%
[3]; 0.13% HSA
  % SULFORHODAMINE 101 (PASSED THROUGH FILTER): 32%
[3]; 0.16% HSA
  % SULFORHODAMINE 101 (PASSED THROUGH FILTER): 23%
[3]; 0.32% HSA
  % SULFORHODAMINE 101 (PASSED THROUGH FILTER): 10%
[3]; 0.48% HSA
  % SULFORHODAMINE 101 (PASSED THROUGH FILTER): 6%

## Cn1c(=O)c2[nH]c(CCCC(=O)N3CCN(C(=O)c4ccccc4C4=c5cc6c(cc5Oc5cc7c(cc54)CCCN7CC(=O)NCCS(=O)(=O)O)=[N+](CC(=O)NCCS(=O)(=O)[O-])CCC6)CC3)nc2n(C)c1=O [theophylline-rhodamine conjugate, reference compound]
Plasma proteins [4]; 0% plasma
  % CONJUGATE (free conjugate in the filtrate): 100%
Plasma proteins [4]; 5% plasma
  % CONJUGATE (free conjugate in the filtrate): 93%
Plasma proteins [4]; 20% plasma
  % CONJUGATE (free conjugate in the filtrate): 82%
Plasma proteins [4]; 45% plasma
  % CONJUGATE (free conjugate in the filtrate): 70%
Plasma proteins [4]; 65% plasma
  % CONJUGATE (free conjugate in the filtrate): 66%
Plasma proteins [4]; 85% plasma
  % CONJUGATE (free conjugate in the filtrate): 57%
Plasma proteins [4]; 95% plasma in HEPES buffer
  % CONJUGATE (free conjugate in the filtrate): 50%
